# According to paper PMC6337588, “Multi-Target Cinnamic Acids for Oxidative Stress and Inflammation: Design, Synthesis, Biological Evaluation and Modeling Studies” (Molecules, 2018):
# Test system: not listed separately
# Test: Inhibition of linoleic acid peroxidation (AAPH)
# Type: biochemical
# Details: anti-lipid peroxidation, 50 µM
# Text: We also used water-soluble 2,2′-[…](2-amidinopropane) hydrochloride (AAPH) for the generation of free radicals. AAPH has been extensively used as a clean and controllable source of thermally produced alkylperoxyl free radicals. The peroxyl radicals produced by the action of AAPH show total similarity to cellular activities such as lipid peroxidation. […] It seems that the presence of 3,5-di-tert-butyl-group greatly enhances protection against lipid peroxidation (6i/ii and 7i/ii followed by 3ii and 5ii). The lipid peroxidation inhibitory activity seems to be concentration dependent.
# 2,2’-Azobis(2-amidinopropane) dihydrochloride (AAPH) was used as a free radical initiator to start the oxidation reaction. The method was based on the production of conjugated diene hydroperoxide by oxidation of linoleic acid at 234 nm expressed as an increased absorption. Trolox was used as reference compound (93%) (Table 2).
row,Structure (SMILES),AAPH% 50 µM
1,"O=C(O)C(=Cc1cccc(Oc2ccccc2)c1)c1ccc(Br)cc1 [Compound 1i, 2-(4-Bromophenyl)-3-(3-phenoxyphenyl)acrylic acid]",34%
2,"CC(C)(C)c1cc(C=C(C(=O)O)c2ccc(O)cc2)cc(C(C)(C)C)c1O [Compound 7ii, 3-(3,5-di-tert-Butyl-4-hydroxyphenyl)-2-(4-hydroxyphenyl)acrylic acid]",69%

# Same assay, conditions: anti-lipid peroxidation, 100 µM
row,Structure (SMILES),AAPH% 100 µM
1,"O=C(O)C(=Cc1cccc(Oc2ccccc2)c1)c1ccc(Br)cc1 [Compound 1i, 2-(4-Bromophenyl)-3-(3-phenoxyphenyl)acrylic acid]",90%
2,"CC(C)(C)c1cc(C=C(C(=O)O)c2ccc(O)cc2)cc(C(C)(C)C)c1O [Compound 7ii, 3-(3,5-di-tert-Butyl-4-hydroxyphenyl)-2-(4-hydroxyphenyl)acrylic acid]",100%

# Biological target: T1, soybean lipoxygenase (Glycine max, UniProt P08170)
# T1 construct: purchased Sigma Chemical, Co. (St. Louis)
# T1 sequence (P08170 1-839): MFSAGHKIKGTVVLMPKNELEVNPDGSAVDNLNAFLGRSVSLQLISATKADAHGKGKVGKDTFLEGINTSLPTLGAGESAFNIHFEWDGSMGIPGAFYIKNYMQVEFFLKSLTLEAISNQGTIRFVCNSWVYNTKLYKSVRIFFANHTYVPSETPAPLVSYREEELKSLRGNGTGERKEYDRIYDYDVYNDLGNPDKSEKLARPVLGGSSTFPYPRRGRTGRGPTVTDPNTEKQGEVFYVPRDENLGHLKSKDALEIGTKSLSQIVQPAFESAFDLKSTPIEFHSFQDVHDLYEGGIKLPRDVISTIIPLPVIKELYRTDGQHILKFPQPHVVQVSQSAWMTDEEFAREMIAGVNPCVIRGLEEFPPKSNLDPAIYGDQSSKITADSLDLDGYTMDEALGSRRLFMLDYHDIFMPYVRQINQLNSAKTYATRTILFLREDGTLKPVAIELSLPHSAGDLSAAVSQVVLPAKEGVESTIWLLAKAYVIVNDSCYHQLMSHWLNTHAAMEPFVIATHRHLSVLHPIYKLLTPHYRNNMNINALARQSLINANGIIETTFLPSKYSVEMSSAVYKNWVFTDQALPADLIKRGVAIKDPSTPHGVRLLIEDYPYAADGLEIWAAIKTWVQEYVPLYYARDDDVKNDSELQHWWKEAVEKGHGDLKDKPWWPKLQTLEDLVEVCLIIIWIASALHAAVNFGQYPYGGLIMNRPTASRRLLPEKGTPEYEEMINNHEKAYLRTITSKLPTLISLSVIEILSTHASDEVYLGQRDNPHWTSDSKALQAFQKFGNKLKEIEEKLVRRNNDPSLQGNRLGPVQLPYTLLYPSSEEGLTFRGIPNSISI
# Test: Soybean lipoxygenase inhibition in vitro
# Type: biochemical
# Details: sodium linoleate 0.1 mM, 234 nm, read-out: LOX IC50
# Protocol: Many research groups have used readily obtainable soybean lipoxygenase, which is a homologue of mammalian lipoxygenase and well studied. Due to its availability and its well-characterised crystal structure, soybean LOX was selected to be used in this study.
# In vitro study was evaluated as reported previously by our group. The tested compounds were incubated at room temperature with sodium linoleate (0.1 mM) and 0.2 mL of enzyme solution (1/9 × 104 w/v in saline). The method was based to the conversion of sodium linoleate to 13-hydroperoxylinoleic acid at 234 nm. […] In order to determine the IC50 values different concentrations were used.
row,IC50,Structure (SMILES)
1,100 µM,"O=C(O)C(=Cc1cccc(Oc2ccccc2)c1)c1ccc(Br)cc1 [Compound 1i, 2-(4-Bromophenyl)-3-(3-phenoxyphenyl)acrylic acid]"
2,57.5 µM,"CC(C)(C)c1cc(C=C(C(=O)O)c2ccc(O)cc2)cc(C(C)(C)C)c1O [Compound 7ii, 3-(3,5-di-tert-Butyl-4-hydroxyphenyl)-2-(4-hydroxyphenyl)acrylic acid]"

# Test system: not listed separately
# Test: Experimental lipophilicity as RM values by reversed phase TLC (RPTLC)
# Type: physicochemical
# Details: methanol/water 77/23 with 0.1% acetic acid, 24 °C, average of at least 5 measurements
# Text: Lipophilicity is a physicochemical property correlated with the biological activity. Lipophilicity influences ligand-target binding interactions, solubility, absorption, distribution, bioavailability, metabolism and elimination (ADME) and toxicological outcomes. The lipophilicity of the novel cinnamic acids was experimentally measured as RM values using a reverse phase thin layer chromatography (RPTLC) method. This is acknowledged as a reliable, fast and convenient approach for expressing lipophilicity (Table 1). RM relates to the thermodynamic Rf value in a logarithmic form. Bate-Smith and Westall firstly determined lipophilicity as RM values in 1950 [31]. The Br-substituted derivatives 1i–7i are more lipophilic than the OH-substituted ones 1ii–7ii which can be easily explained by their structural characteristics.
# Reversed phase TLC (RPTLC) was performed on silica gel plates impregnated with 55% (v/v) liquid paraffin in light petroleum ether. The mobile phase was a methanol/water mixture (77/23, v/v) containing 0.1% of acetic acid. The plates were developed in closed chromatography tanks saturated with the mobile phase at 24 °C. Spots were detected under UV light. RM values were determined from the corresponding Rf values (from five individual measurements) using the equation RM = log[(1/Rf) − 1] [17, 18, 28].
row,RM (±SD),Structure (SMILES)
1,−0.103 (0.009),"O=C(O)C(=Cc1cccc(Oc2ccccc2)c1)c1ccc(Br)cc1 [Compound 1i, 2-(4-Bromophenyl)-3-(3-phenoxyphenyl)acrylic acid]"
2,0.654 (0.016),"CC(C)(C)c1cc(C=C(C(=O)O)c2ccc(O)cc2)cc(C(C)(C)C)c1O [Compound 7ii, 3-(3,5-di-tert-Butyl-4-hydroxyphenyl)-2-(4-hydroxyphenyl)acrylic acid]"

# Test system: not listed separately
# Test: Non enzymatic assay of superoxide radical scavenging activity (PMS/NADH/NBT)
# Type: biochemical
# Details: not given
# Protocol: Superoxide radical is a main cause of oxidative stress, expressing its biological toxicity by the inactivation of iron-sulfur cluster containing enzymes. The superoxide anion radical (O2^−^•) is less toxic than the hydroxyl radical, but still being one of the most known toxic reactive oxygen species (ROS). In this assay the superoxide anion radicals were generated by a non-enzymatically assay and the compounds are tested at 100 μM final concentration (Table 2). Caffeic acid (CA) has been used as a reference compound. Compound 4ii presented the highest activity, followed by compound 3ii. We succeeded to derive a quantitative-structure activity relationship model for this activity in which the topological polar surface (TPAS) of the compounds seem to govern the superoxide anion scavenging activity:% Superoxide Anion Scavenging Activity (100 µM) = 0.019 (±0.007) TPSA + 0.813 (±0.358) n = 6, r = 0.962, r^2 = 0.926, q^2 = 0.694, s = 0.122, Q = 7.885, F1,6 = 3.701, α = 0.1 clog P vs. TPSA 0.
# The superoxide radicals are generated by mixing N-methylphenazonium methyl sulfate (PMS), NADH and air–oxygen and determined by the nitroblue tetrazolium method and measured at 560 nm (Table 2). Caffeic acid was used as reference compound [17, 18, 28].
row,Structure (SMILES),O2−•% 100 µM
1,"O=C(O)C(=Cc1cccc(Oc2ccccc2)c1)c1ccc(Br)cc1 [Compound 1i, 2-(4-Bromophenyl)-3-(3-phenoxyphenyl)acrylic acid]",54%
2,"CC(C)(C)c1cc(C=C(C(=O)O)c2ccc(O)cc2)cc(C(C)(C)C)c1O [Compound 7ii, 3-(3,5-di-tert-Butyl-4-hydroxyphenyl)-2-(4-hydroxyphenyl)acrylic acid]",69%

# Test system: not given
# Test: not given
# Details: not given
row,melting point,Structure (SMILES)
1,152 to 153 °C,"O=C(O)C(=Cc1cccc(Oc2ccccc2)c1)c1ccc(Br)cc1 [Compound 1i, 2-(4-Bromophenyl)-3-(3-phenoxyphenyl)acrylic acid]"
2,139 to 140 °C,"CC(C)(C)c1cc(C=C(C(=O)O)c2ccc(O)cc2)cc(C(C)(C)C)c1O [Compound 7ii, 3-(3,5-di-tert-Butyl-4-hydroxyphenyl)-2-(4-hydroxyphenyl)acrylic acid]"

# Test system: not listed separately
# Test: ABTS+• decolorization assay
# Type: biochemical
# Details: 1 min, 734 nm
# Protocol: No role for lipophilicity was found. Oxidation of ABTS with potassium persulfate generates directly the ABTS radical cation (ABTS^+•) with no involvement of an intermediary radical, which is then reduced upon adding electron-donating antioxidants.
# In order to produce the ABTS radical cation (ABTS^+•), ABTS stock solution in water (7 mM) was mixed with potassium persulfate (2.45 mM) and left in the dark at room temperature for 12–16 h before use. Our published experimental technique was used (Table 2). The results are recorded after 1 min of the mixing solutions at 734 nm. The results were compared to the appropriate standard inhibitor Trolox.
row,Structure (SMILES),ABTS+•% 100 µM
1,"O=C(O)C(=Cc1cccc(Oc2ccccc2)c1)c1ccc(Br)cc1 [Compound 1i, 2-(4-Bromophenyl)-3-(3-phenoxyphenyl)acrylic acid]",29%
2,"CC(C)(C)c1cc(C=C(C(=O)O)c2ccc(O)cc2)cc(C(C)(C)C)c1O [Compound 7ii, 3-(3,5-di-tert-Butyl-4-hydroxyphenyl)-2-(4-hydroxyphenyl)acrylic acid]",34%

# Test system: not listed separately
# Test: Reducing activity of the stable radical DPPH
# Type: biochemical
# Details: 50 µM, 20 min
# Protocol: The substituted acids were monitored for the antioxidant activity by the use of the stable 2,2-diphenyl-1-picrylhydrazyl radical (DPPH) at concentration 50 µM and 100 µM after 20 and 60 min (Table 1). In this assay the DPPH radical is reduced by single electron transfer from the antioxidant. Strong antioxidants are the phenoxide anions from phenolic compounds like catechol and derivatives, such as nordihydroguaretic acid (NDGA), the reference compound. The compounds presented medium reducing abilities from 29–61%, due to steric reasons; small differences were found among the compounds with time and concentration. 4-Br-substituted-3 phenyl acetic acid derivatives (Series I) are equipotent to 4-OH-substituted-3 phenyl acetic acid derivatives (Series II). No differences were observed between 4i and 5i and 4ii and 5ii.
# To a solution of DPPH in absolute ethanol an equal volume of the compounds dissolved in DMSO was added. The final concentrations of the measured solutions of the novel acids were 50 and 100 µM starting from a stock solution (10 mM) in DMSO. The absorbance was recorded at 517 nm, after 20 and 60 min at room temperature (Table 1).
row,Structure (SMILES),RA% 50 µM 20 min
1,"O=C(O)C(=Cc1cccc(Oc2ccccc2)c1)c1ccc(Br)cc1 [Compound 1i, 2-(4-Bromophenyl)-3-(3-phenoxyphenyl)acrylic acid]",38%
2,"CC(C)(C)c1cc(C=C(C(=O)O)c2ccc(O)cc2)cc(C(C)(C)C)c1O [Compound 7ii, 3-(3,5-di-tert-Butyl-4-hydroxyphenyl)-2-(4-hydroxyphenyl)acrylic acid]",33%

# Same assay, conditions: 50 µM, 60 min
row,Structure (SMILES),RA% 50 µM 60 min
1,"O=C(O)C(=Cc1cccc(Oc2ccccc2)c1)c1ccc(Br)cc1 [Compound 1i, 2-(4-Bromophenyl)-3-(3-phenoxyphenyl)acrylic acid]",37%
2,"CC(C)(C)c1cc(C=C(C(=O)O)c2ccc(O)cc2)cc(C(C)(C)C)c1O [Compound 7ii, 3-(3,5-di-tert-Butyl-4-hydroxyphenyl)-2-(4-hydroxyphenyl)acrylic acid]",35%

# Same assay, conditions: 100 µM, 20 min
row,Structure (SMILES),RA% 100 µM 20 min
1,"O=C(O)C(=Cc1cccc(Oc2ccccc2)c1)c1ccc(Br)cc1 [Compound 1i, 2-(4-Bromophenyl)-3-(3-phenoxyphenyl)acrylic acid]",44%
2,"CC(C)(C)c1cc(C=C(C(=O)O)c2ccc(O)cc2)cc(C(C)(C)C)c1O [Compound 7ii, 3-(3,5-di-tert-Butyl-4-hydroxyphenyl)-2-(4-hydroxyphenyl)acrylic acid]",33%

# Same assay, conditions: 100 µM, 60 min
row,Structure (SMILES),RA% 100 µM 60 min
1,"O=C(O)C(=Cc1cccc(Oc2ccccc2)c1)c1ccc(Br)cc1 [Compound 1i, 2-(4-Bromophenyl)-3-(3-phenoxyphenyl)acrylic acid]",46%
2,"CC(C)(C)c1cc(C=C(C(=O)O)c2ccc(O)cc2)cc(C(C)(C)C)c1O [Compound 7ii, 3-(3,5-di-tert-Butyl-4-hydroxyphenyl)-2-(4-hydroxyphenyl)acrylic acid]",34%

# Test system: not listed separately
# Test: Competition with DMSO for hydroxyl radicals (Fe3+/ascorbic acid system)
# Type: biochemical
# Details: hydroxyl radical scavenging
# Protocol: Competition of the novel substituted acids with DMSO for hydroxyl radicals was measured. Hydroxyl radicals were generated using the Fe^3+/ascorbic acid system and expressed as a percentage inhibition of formaldehyde production in the presence of each compound at 100 μM (Table 2). All the synthesized derivatives strongly scavenge hydroxyl radicals at 100 μM in comparison to the reference compound Trolox.
# The hydroxyl radicals generated by the Fe^3+/ascorbic acid system, were detected by the determination of formaldehyde produced from the oxidation of DMSO (Table 2). Trolox was used as reference compound [17, 18, 28].
row,Structure (SMILES),HO•% 100 µM
1,"O=C(O)C(=Cc1cccc(Oc2ccccc2)c1)c1ccc(Br)cc1 [Compound 1i, 2-(4-Bromophenyl)-3-(3-phenoxyphenyl)acrylic acid]",94%
2,"CC(C)(C)c1cc(C=C(C(=O)O)c2ccc(O)cc2)cc(C(C)(C)C)c1O [Compound 7ii, 3-(3,5-di-tert-Butyl-4-hydroxyphenyl)-2-(4-hydroxyphenyl)acrylic acid]",72%
